Several values for one entry are separate records, joined by “and”; a condition that tells them apart may be missing. Identical values can stand only once.
Experiments:
Format in all cases: cell-based
[1] = tested on: human ovarian adenocarcinoma SKOV-3 cells; test: Cytotoxicity assay (CellTiter-Glo, 72 h), SKOV-3; conditions: raw replicate data
Experimental: (§1) Jurkat cells were cultured in RPMI1640 medium supplemented with 10% foetal bovine serum, penicillin (50 U/ml), streptomycin (50 μg/ml), and Glutamax. SKOV-3 cells were cultured in DMEM medium supplemented with 10% fetal bovine serum, penicillin (50 U/ml), and streptomycin (50 μg/ml). MESO-1 cells were cultured in RPMI1640 medium supplemented with 10% fetal bovine serum, penicillin (50 U/ml), and streptomycin (50 μg/ml). All cell lines were seeded in a 384-well plate at a density of 1000 cells/well in 20 μl of media and incubated at 37 °C in a humidified incubator with 5% CO2. After 4 h, 2-fold dilution samples resolved in DMSO were added to the cell culture at the concentration of 0.5% (0.1 μl) and incubated for 72 h. Cell viabilities were measured using a CellTiter-Glo luminescent cell viability assay and EnVision multilabel plate reader.

[2] = tested on: malignant pleural mesothelioma MESO-1 cells; test: Cytotoxicity assay (CellTiter-Glo, 72 h), MESO-1; conditions: raw replicate data
Experimental: as §1

FKBP12 and mTOR = target: T1, FKBP12 and mTOR (Homo sapiens, UniProt P42345+P62942); test: Fluoppi analysis: induction of FKBP12-mTOR complex formation in transfected HeLa cells; conditions: for Foci intensity: raw data, one replicate per line
T1 construct: host or cells: HeLa cells
Experimental: Fluoppi harbours a tetrameric fluorescent protein hAG tag and an oligomeric assembly helper Ash tag to create detectable fluorescent foci in cells when there are interactions between two proteins fused to each tag[32].
HeLa cells were maintained in DMEM (Fujifilm Wako, Osaka, Japan) supplemented with 10% FBS (Thermo Fisher Scientific, MA, USA) and 1% of Penicillin-Streptomycin (Thermo Fisher Scientific) in a humidified incubator with 5% CO2 at 37 °C. Harvested cells were plated at 1 × 10^6 cells/well in 6-well plate and incubated for 6 h. Then each 1.25 µg of phAG-mTOR and pAsh-FKBP12 (Medical and Biological Laboratories Co., Ltd., Aichi, Japan) was co-transfected with Lipofectamine 2000 reagent (Thermo Fisher Scientific) overnight. Next day, transfected cells were harvested and seeded in 384-well optical-bottom microplate (PerkinElmer, MA, USA) at a density of 3000 cells/well. After the 24 h incubation at 37 °C, cells were treated with different concentrations of compounds for 1 h. Cells were then fixed with 4% paraformaldehyde and stained with 1 µg/ml of Hoechst33342 (Thermo Fisher Scientific). Cell images of 9 visual fields/well were acquired with ×20 objective lens in Opera Phenix High-Content Screening System (PerkinElmer) and analysed by Harmony4.9 software (PerkinElmer). Because protein-protein interactions are quantified by measuring the aggregation of fluorescent elements in foci, fluorescent intensity in foci was normalised by total fluorescent intensity in each cell. EC50 values were calculated using TIBCO Spotfire 10.3 software (PerkinElmer).

[3] = tested on: Jurkat, SKOV-3 and MESO-1 cells; test: Cytotoxicity assay, statements for all tested cell lines together; conditions: against the tested cell lines (Jurkat, SKOV-3, MESO-1)
Experimental: as §1

T lymphoma Jurkat cells = test: Cytotoxicity assay (CellTiter-Glo, 72 h), Jurkat; conditions: raw data (replicates)
Experimental: as §1

T1 sequence (P42345 2025-2114 limits assumed): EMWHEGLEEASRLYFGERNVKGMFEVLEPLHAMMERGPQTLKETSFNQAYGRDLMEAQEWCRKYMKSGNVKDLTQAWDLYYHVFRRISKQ
T1 sequence (P62942 whole entry): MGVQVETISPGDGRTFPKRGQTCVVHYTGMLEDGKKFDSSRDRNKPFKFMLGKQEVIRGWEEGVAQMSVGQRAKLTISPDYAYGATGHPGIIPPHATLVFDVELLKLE

Foci intensity (FKBP12 and mTOR; conc 9.53674e-5 uM): 0.02286 and 0.01106 and 0.01492
Foci intensity (FKBP12 and mTOR; conc 0.000190735 uM): 0.009983 and 0.01574 and 0.02887
Foci intensity (FKBP12 and mTOR; conc 0.00038147 uM): 0.01899 and 0.01621 and 0.01221
Foci intensity (FKBP12 and mTOR; conc 0.000762939 uM): 0.002009 and 0.003868 and 0.01862
Foci intensity (FKBP12 and mTOR; conc 0.00152588 uM): 0.02126 and 0.01678 and 0.003092
Foci intensity (FKBP12 and mTOR; conc 0.00305176 uM): 0.0138 and 0.01691 and 0.01576
Foci intensity (FKBP12 and mTOR; conc 0.00610352 uM): 0.03172 and 0.01801 and 0.0222
Foci intensity (FKBP12 and mTOR; conc 0.012207 uM): 0.01093 and 0.01362 and 0.01381
Foci intensity (FKBP12 and mTOR; conc 0.0244141 uM): 0.01964 and 0.01491 and 0.01835
Foci intensity (FKBP12 and mTOR; conc 0.0488281 uM): 0.004003 and 0.01339 and 0.01507
Foci intensity (FKBP12 and mTOR; conc 0.0976562 uM): 0.01375 and 0.009337 and 0.02775
Foci intensity (FKBP12 and mTOR; conc 0.195312 uM): 0.0177 and 0.02519 and 0.008414
Foci intensity (FKBP12 and mTOR; conc 0.390625 uM): 0.01709 and 0.006803 and 0.01525
Foci intensity (FKBP12 and mTOR; conc 0.78125 uM): 0.01284 and 0.02644 and 0.03084
Foci intensity (FKBP12 and mTOR; conc 1.5625 uM): 0.02173 and 0.02485 and 0.03636
Foci intensity (FKBP12 and mTOR; conc 3.125 uM): 0.02309 and 0.03313 and 0.02928
Foci intensity (FKBP12 and mTOR; conc 6.25 uM): 0.01525 and 0.02728 and 0.02945
Foci intensity (FKBP12 and mTOR; conc 12.5 uM): 0.02884 and 0.0389 and 0.01245
Foci intensity (FKBP12 and mTOR; conc 25 uM): 0.03878 and 0.02312 and 0.004037
Foci intensity (FKBP12 and mTOR; conc 50 uM): 0.02187 and 0.0201 and 0.02169
Compound: COC1CC2CCC(C)C(O)(O2)C(=O)C(=O)N2CCCCC2C(=O)OC(C(C)CC2CCC(O)C(OC)C2)CC(O)CC(=O)C(C)CC(C)C=CC=CC=C1C (stereo not shown) [Compound 11]
SKOV3 viability (%) ([1]; conc 9.53674e-5 uM): 103.0% and 111.8% and 102.7%
SKOV3 viability (%) ([1]; conc 0.000190735 uM): 100.4% and 96.2% and 95.8%
SKOV3 viability (%) ([1]; conc 0.00038147 uM): 103.1% and 104.5% and 105.0%
SKOV3 viability (%) ([1]; conc 0.000762939 uM): 97.9% and 100.1% and 100.0%
SKOV3 viability (%) ([1]; conc 0.00152588 uM): 106.4% and 105.2% and 101.9%
SKOV3 viability (%) ([1]; conc 0.00305176 uM): 98.6% and 97.0% and 99.4%
SKOV3 viability (%) ([1]; conc 0.00610352 uM): 109.3% and 103.3% and 106.5%
SKOV3 viability (%) ([1]; conc 0.012207 uM): 99.6% and 97.7% and 101.2%
SKOV3 viability (%) ([1]; conc 0.0244141 uM): 103.3% and 106.1% and 104.6%
SKOV3 viability (%) ([1]; conc 0.0488281 uM): 98.5% and 100.3% and 98.3%
SKOV3 viability (%) ([1]; conc 0.0976562 uM): 105.4% and 104.9% and 104.3%
SKOV3 viability (%) ([1]; conc 0.195312 uM): 95.0% and 97.7% and 100.1%
SKOV3 viability (%) ([1]; conc 0.390625 uM): 104.0% and 107.6% and 105.3%
SKOV3 viability (%) ([1]; conc 0.78125 uM): 100.0% and 99.8% and 98.6%
SKOV3 viability (%) ([1]; conc 1.5625 uM): 98.3% and 102.6% and 98.7%
SKOV3 viability (%) ([1]; conc 3.125 uM): 98.0% and 99.6% and 88.9%
SKOV3 viability (%) ([1]; conc 6.25 uM): 95.1% and 93.6% and 91.3%
SKOV3 viability (%) ([1]; conc 12.5 uM): 92.5% and 90.6% and 91.1%
SKOV3 viability (%) ([1]; conc 25 uM): 91.0% and 92.9% and 94.1%
SKOV3 viability (%) ([1]; conc 50 uM): 83.8% and 79.2% and 82.0%
MESO1 viability (%) ([2]; conc 9.53674e-5 uM): 103.9% and 103.5% and 98.5%
MESO1 viability (%) ([2]; conc 0.000190735 uM): 96.6% and 99.4% and 97.9%
MESO1 viability (%) ([2]; conc 0.00038147 uM): 98.3% and 99.6% and 101.3%
MESO1 viability (%) ([2]; conc 0.000762939 uM): 105.2% and 96.5% and 100.7%
MESO1 viability (%) ([2]; conc 0.00152588 uM): 101.4% and 100.3% and 96.4%
MESO1 viability (%) ([2]; conc 0.00305176 uM): 100.9% and 90.0% and 104.4%
MESO1 viability (%) ([2]; conc 0.00610352 uM): 103.9% and 99.7% and 97.3%
MESO1 viability (%) ([2]; conc 0.012207 uM): 100.4% and 97.8% and 98.7%
MESO1 viability (%) ([2]; conc 0.0244141 uM): 97.0% and 101.2% and 106.3%
MESO1 viability (%) ([2]; conc 0.0488281 uM): 98.5% and 98.3% and 96.0%
MESO1 viability (%) ([2]; conc 0.0976562 uM): 105.6% and 104.1% and 98.8%
MESO1 viability (%) ([2]; conc 0.195312 uM): 98.6% and 98.7% and 91.4%
MESO1 viability (%) ([2]; conc 0.390625 uM): 103.9% and 97.5% and 98.1%
MESO1 viability (%) ([2]; conc 0.78125 uM): 94.8% and 90.3% and 84.8%
MESO1 viability (%) ([2]; conc 1.5625 uM): 93.0% and 93.7% and 91.6%
MESO1 viability (%) ([2]; conc 3.125 uM): 84.8% and 80.8% and 88.7%
MESO1 viability (%) ([2]; conc 6.25 uM): 89.0% and 88.1% and 84.7%
MESO1 viability (%) ([2]; conc 12.5 uM): 82.3% and 77.8% and 85.2%
MESO1 viability (%) ([2]; conc 25 uM): 76.7% and 80.1% and 74.6%
MESO1 viability (%) ([2]; conc 50 uM): 57.9% and 55.6% and 52.8%
PPI-inducing (binding enhancing) activity between FKBP12 and mTOR compared with rapamycin (1), in words (FKBP12 and mTOR; Fluoppi): completely lost the ability to induce the formation of FKBP12-mTOR complex
Concentration at which cytotoxic activities were shown [3]: over 10 µM
Jurkat viability (%) (T lymphoma Jurkat cells; conc 9.53674e-5 uM): 99.6% and 105.7% and 104.8%
Jurkat viability (%) (T lymphoma Jurkat cells; conc 0.000190735 uM): 102.5% and 104.1% and 102.4%
Jurkat viability (%) (T lymphoma Jurkat cells; conc 0.00038147 uM): 103.5% and 109.4% and 98.8%
Jurkat viability (%) (T lymphoma Jurkat cells; conc 0.000762939 uM): 99.9% and 101.1% and 97.3%
Jurkat viability (%) (T lymphoma Jurkat cells; conc 0.00152588 uM): 100.9% and 100.4% and 103.9%
Jurkat viability (%) (T lymphoma Jurkat cells; conc 0.00305176 uM): 102.0% and 103.4% and 101.1%
Jurkat viability (%) (T lymphoma Jurkat cells; conc 0.00610352 uM): 100.0% and 104.2% and 103.2%
Jurkat viability (%) (T lymphoma Jurkat cells; conc 0.012207 uM): 106.8% and 106.3% and 106.1%
Jurkat viability (%) (T lymphoma Jurkat cells; conc 0.0244141 uM): 104.8% and 107.2% and 106.6%
Jurkat viability (%) (T lymphoma Jurkat cells; conc 0.0488281 uM): 97.2% and 96.3% and 106.5%
Jurkat viability (%) (T lymphoma Jurkat cells; conc 0.0976562 uM): 106.1% and 104.1% and 111.0%
Jurkat viability (%) (T lymphoma Jurkat cells; conc 0.195312 uM): 100.5% and 100.4% and 103.3%
Jurkat viability (%) (T lymphoma Jurkat cells; conc 0.390625 uM): 100.9% and 100.4% and 105.6%
Jurkat viability (%) (T lymphoma Jurkat cells; conc 0.78125 uM): 94.7% and 91.5% and 97.0%
Jurkat viability (%) (T lymphoma Jurkat cells; conc 1.5625 uM): 93.8% and 86.6% and 86.2%
Jurkat viability (%) (T lymphoma Jurkat cells; conc 3.125 uM): 76.9% and 80.2% and 77.8%
Jurkat viability (%) (T lymphoma Jurkat cells; conc 6.25 uM): 68.8% and 66.4% and 70.4%
Jurkat viability (%) (T lymphoma Jurkat cells; conc 12.5 uM): 58.6% and 56.1% and 57.5%
Jurkat viability (%) (T lymphoma Jurkat cells; conc 25 uM): 45.9% and 41.4% and 49.3%
Jurkat viability (%) (T lymphoma Jurkat cells; conc 50 uM): 12.3% and 11.6% and 15.7%
